15 molecules from patent US7030287B2, “Method of decreasing nitrate nitrogen and volatile organic compound in soil and groundwater” (Matsushita Electric Industrial Co., Ltd., priority 2001, dated 2006) can be followed below.

A short description of assay [1]: Polluted soil experiment (Examples 4 to 7): 1,1,1-trichloroethane concentration in polluted soil by GC-MS. From the text: (§1) FIG. 4 is a view showing an experiment facility used for effecting the method of decreasing nitrate nitrogen and volatile organic compounds in Example 4. A part (a) of FIG. 4 is a plan view of the experiment facility, and a part (b) of FIG. 4 is a side view thereof.
(§2) As shown in the part (a) of FIG. 4, the polluted soil 32 is provided approximately at the center of the experiment bath 34 so that it is surrounded by the experiment soil 33.
(§3) In Example 4, the concrete frame 31 in the form of square measure is a cube of 1 m square having open upper part, and artificial soil prepared by mixing kuroboku soil and loam in equivalent amounts was charged in the experiment bath 34 formed with the concrete frame 31 and allowed to stand outdoors (average temperature: 21° C.) for about 2 months.
(§4) Then, the surface of the artificial soil formed as described above was dug to form a hole in the form of cylinder having a diameter of 30 cm and a depth of 50 cm, and this hole was re-buried with the polluted soil 32.
(§5) The polluted soil was obtained by adding experiment materials (containing no nitrogen atom) such as fatty acids and alcohols of the present invention and comparative materials of conventional technologies used for comparison in an amount of 1 wt % to 1.2 ton of soil polluted with 1,1,1-trichloroethane and 1,1-dichloroethylene (containing about 1400 μg/L of […], about 50 μg/L of 1,1-dichloroethylene, by elution test according to Kankoku No. 46), and mixing kuroboku soil and loam in equivalent amounts uniformly.
(§6) To the polluted soil formed as described above was fed diammonium hydrogen phosphate having a concentration of 100 mg/L as a nutrient salt (nitrogen source) at a ratio of 140 L/day.
(§7) Under the above-mentioned conditions, the concentrations of 1,1,1-trichloroethane and 1,1-dichloroethylene in the polluted soil 32 were measured by gas chromatograph mass spectrometry 20 days after initiation of the experiment. Soils around the re-buried polluted soil 32 (soils on four corners A to D at a depth of 50 cm in FIG. 4) were sampled, and four-point average values of the total carbon concentration and total nitrogen concentration per soil dried weight were measured.
(§8) In the method of decreasing nitrate nitrogen and volatile organic compounds in Example 5, the same experiment facility (FIG. 4) as in Example 4 was used. Stearic acid was used as the decreasing agent such as fatty acids, alcohols and the like used in the present invention, and an iron powder having an average particle size of about 15 μm was added simultaneously with this stearic acid, to give polluted soil of compartment No. 1. In polluted soil of compartment No. 2, stearic acid and an aluminum powder having an average particle size of 180 μm were added in the same concentration as the polluted soil of compartment No. 1. The same experiment as in Example 4 was conducted on these polluted soils (compartment Nos. 1, 2).
(§9) In the method of decreasing nitrate nitrogen and volatile organic compounds in Example 6, the same experiment facility (FIG. 4) as in Example 4 was used. Beef tallow fatty acid was used as the decreasing agent such as fatty acids, alcohols and the like used in the present invention, and a bacteria previously cultured was inoculated to the soil and the same experiment as in Example 4 was conducted.
(§10) For obtaining the bacteria used in Example 6, 1,1,1-trichloroethane was controlled to 5000 μg/L, 1,1-dichloroethylene was controlled to 5000 μg/L, diammonium hydrogen phosphate was controlled to 800 mg/L and beef tallow fatty acid which was only carbon source was controlled to 0.5 wt % in soil collected at a point of 30 cm depth from the ground surface of agricultural land (tea field), and the medium was cultured at a temperature of 16° C. for 12 days.
(§11) In the method of decreasing nitrate nitrogen and volatile organic compounds in Example 7, the same experiment facility (FIG. 4) as in Example 4 was used. […]

Assay [2] can be described thus: Polluted soil experiment (Examples 4 to 7): 1,1-dichloroethylene concentration in polluted soil by GC-MS.
Text: as §1, §2, §3, §4, §5, §6, §7, §8, §9, §10, §11

The mark [3] stands for this setting: Example 7, nutrient salt containing nitrogen not added.
The mark [4] stands for this setting: Example 4, 1 wt % material in polluted soil (about 1400 μg/L initially), diammonium hydrogen phosphate fed.
Setting [5] is: Example 4, 1 wt % material in polluted soil (about 50 μg/L initially), diammonium hydrogen phosphate fed.

Take `CC(=O)O` [Acetic acid, reference compound]: the “1,1,1-trichloroethane concentration after 20 days” value in assay [1] (setting [3]) came to 1350 µg/L. In addition, the “1,1-dichloroethylene concentration after 20 days” value in assay [2] (setting [3]) was 41 µg/L.
With `CCCCCCCCCCCCCCCCCCCCCCO` [Behenyl alcohol], in assay [1] (setting [4]), the “1,1,1-trichloroethane concentration after 20 days” value is 920 µg/L. Besides, the “1,1-dichloroethylene concentration after 20 days” value in assay [2] (setting [5]) turned out to be 21 µg/L.
Turning to `CCCCCCCC(=O)O` [Caprylic acid, reference compound], the “1,1,1-trichloroethane concentration after 20 days” value in assay [1] (setting [4]) is 960 µg/L. Further, the “1,1-dichloroethylene concentration after 20 days” value in assay [2] (setting [5]) was 16 µg/L.
With `CCCCCCCCCCCCCCCCCC(=O)O[C@H]1CC[C@@]2(C)C(=CC[C@H]3[C@@H]4CC[C@H]([C@H](C)CCCC(C)C)[C@@]4(C)CC[C@@H]32)C1` [Cholesterol stearate], in assay [1] (setting [4]), the “1,1,1-trichloroethane concentration after 20 days” value was determined as 650 µg/L. In addition, the “1,1-dichloroethylene concentration after 20 days” value in assay [2] (setting [5]) was 20 µg/L.
With `CCCCCCCCCCCCCCCCCCC(=O)CCCCCCCCCCCCCCCCCC` [Distearyl ketone], in assay [1] (setting [3]), the “1,1,1-trichloroethane concentration after 20 days” value was found to be 830 µg/L. Moreover, in assay [2] (setting [3]), the “1,1-dichloroethylene concentration after 20 days” value was found to be 20 µg/L.
`CCCCCCCCCCCCCCCCCCNCCCCCCCCCCCCCCCCCC` [Distearylamine]: the “1,1,1-trichloroethane concentration after 20 days” value in assay [1] (setting [3]) is 910 µg/L. The “1,1-dichloroethylene concentration after 20 days” value in assay [2] (setting [3]) stood at 24 µg/L.
`CCO` [Ethanol, reference compound]: the “1,1,1-trichloroethane concentration after 20 days” value in assay [1] (setting [4]) turned out to be 1100 µg/L. For the same molecule, the “1,1-dichloroethylene concentration after 20 days” value in assay [2] (setting [5]) came out at 19 µg/L.
With `CC(O)C(=O)O` (stereo not drawn) [Lactic acid, reference compound], the “1,1,1-trichloroethane concentration after 20 days” value in assay [1] (setting [4]) came to 870 µg/L. Also, the “1,1-dichloroethylene concentration after 20 days” value in assay [2] (setting [5]) was found to be 20 µg/L.
For the molecule `CO` [Methanol, reference compound], the “1,1,1-trichloroethane concentration after 20 days” value in assay [1] (setting [3]) amounted to 1330 µg/L. For the same molecule, in assay [2] (setting [3]), the “1,1-dichloroethylene concentration after 20 days” value was found to be 49 µg/L.
For `CCCCCCCCCCCCCCN` [Myristylamine], the “1,1,1-trichloroethane concentration after 20 days” value in assay [1] (setting [3]) came to 940 µg/L. For the same molecule, the “1,1-dichloroethylene concentration after 20 days” value in assay [2] (setting [3]) was 29 µg/L.
As for `CCCCCCCC/C=C\CCCCCCCC(=O)O` [Oleic acid, reference compound], the “1,1,1-trichloroethane concentration after 20 days” value in assay [1] (setting [4]) was determined as 690 µg/L. For the same molecule, the “1,1-dichloroethylene concentration after 20 days” value in assay [2] (setting [5]) is 21 µg/L.
Turning to `CCCCCCCCCCCCCCCCCC(N)=O` [Stearic amide], the “1,1,1-trichloroethane concentration after 20 days” value in assay [1] (setting [3]) is 790 µg/L. The “1,1-dichloroethylene concentration after 20 days” value in assay [2] (setting [3]) amounted to 24 µg/L.
For `CC(=O)O.CCCCCCCCCCCCCCCCCCN` [Stearylamine acetate], the “1,1,1-trichloroethane concentration after 20 days” value in assay [1] (setting [3]) came to 900 µg/L. Besides, the “1,1-dichloroethylene concentration after 20 days” value in assay [2] (setting [3]) turned out to be 28 µg/L.
With Oleic monoglyceride, the “1,1,1-trichloroethane concentration after 20 days” value in assay [1] (setting [4]) was 700 µg/L. For the same molecule, the “1,1-dichloroethylene concentration after 20 days” value in assay [2] (setting [5]) came out at 19 µg/L.
For Polyoxyethylene octylphenyl ether, in that order: 820 µg/L and 24 µg/L.
